The values below come from paper PMC6317804, “The integration of pharmacophore-based 3D QSAR modeling and virtual screening in safety profiling: A case study to identify antagonistic activities against adenosine receptor, A2A, using 1,897 known drugs” (PLoS ONE, 2019).

Values joined by “and” are separate entries in the source; they are usually repeats but may differ in a detail not shown here. Equal values may be shown once.

The subject of test [1] is A2A. The following applies: cited from earlier work.
The target in test [2] is T1, adenosine receptor 2A (A2A) (Homo sapiens, UniProt P29274).
T1 construct: CEREP (Poitiers, France), paid service
Kind of test: Functional antagonist assay monitoring cAMP (CEREP).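 Further: eight-point concentration-response from 0 to 10 µM.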 The format is cell-based. As to conditions: concentration-response up to 10 μM; read-out: IC50, cAMP.
Protocol: (§1) Competition binding assay using radioactive ligands and functional assay monitoring cAMP were carried out as a paid service provided by CEREP (Poitiers, France). The functional assays monitoring Ca^2+ flux were carried out as a paid service provided by DiscoveRx (Carlsbad, CA).

For test [3], the target named is T1, adenosine receptor 2A (A2A). Kind of test: Functional assay monitoring Ca2+ flux (DiscoveRx).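 Further: concentration-response testing with 10 µM as highest concentration.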 The format is cell-based. As to conditions: read-out: IC50, Ca2+, M.
Protocol: as §1
For test [4] the target is unchanged. Description: Competition binding assay using radioactive ligands (CEREP).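 Further: compounds screened at a single fixed 10 µM concentration for displacement of a radioligand.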 As to conditions: fixed compound concentration of 10 μM.
Protocol: as §1

The term IC50 denotes the concentration that gives 50% inhibition.

T1 sequence (P29274 whole entry): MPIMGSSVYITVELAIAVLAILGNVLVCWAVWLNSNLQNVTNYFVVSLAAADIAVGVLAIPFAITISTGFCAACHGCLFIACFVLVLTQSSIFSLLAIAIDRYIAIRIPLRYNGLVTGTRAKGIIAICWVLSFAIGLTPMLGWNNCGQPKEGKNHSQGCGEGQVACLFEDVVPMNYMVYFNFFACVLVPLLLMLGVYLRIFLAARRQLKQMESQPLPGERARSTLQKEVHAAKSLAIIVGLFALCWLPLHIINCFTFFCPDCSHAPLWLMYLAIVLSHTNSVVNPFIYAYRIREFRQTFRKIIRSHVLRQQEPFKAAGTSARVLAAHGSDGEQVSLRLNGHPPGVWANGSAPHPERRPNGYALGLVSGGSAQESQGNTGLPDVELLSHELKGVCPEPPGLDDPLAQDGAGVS

`O=C(/C=C/c1c(-c2ccccc2)nn2ccccc12)N1CCCC[C@@H]1CCO` [FK453]: the IC50 in test [1] is 1.58 µM.

With `c1ccc(-c2cc(-c3ccccc3)c3nc(C4CCCCC4)[nH]c3n2)cc1` [LUF5981], the IC50 in test [1] is 0.2 µM.

For the compound `CCOC(=O)C1=C(C)NC(c2ccccc2)=C(C(=O)OCc2ccccc2)C1C#Cc1ccccc1` (centres unmarked) [MRS1191], in test [1], the IC50 is ~10 µM and 10 µM.

On to `CC(=O)CCCCn1c(=O)c2c(ncn2C)n(C)c1=O` [Pentoxifylline], for which, in test [2], the inhibition at up to 10 µM was less than 50%. Further, the inhibition in test [3] was less than 50%. Also, in test [4], the inhibition at 10 µM is less than 50%. Further, in test [1], the IC50 is approximately 10 µM.

For `CC(C)[C@H](N)C(=O)OCCOCn1cnc2c(=O)[nH]c(N)nc21` [Valaciclovir], the inhibition at up to 10 µM in test [2] was less than 50%. Also, the inhibition in test [3] was less than 50%. For the same compound, in test [4], the inhibition at 10 µM is less than 50%.

`CC(C)[C@H](N)C(=O)OCC(CO)OCn1cnc2c(=O)nc(N)[nH]c21` (some centres unmarked) [Valganciclovir]: the inhibition at up to 10 µM in test [2] was less than 50%. Also, the inhibition in test [3] was less than 50%. The inhibition at 10 µM in test [4] was less than 50%.

In the case of `Cn1c(=O)c2c(ncn2CC(O)CO)n(C)c1=O` (centres unmarked) [dyphylline], the IC50 in test [1] was approximately 10 µM.
